Measurements: ChEMBL document CHEMBL3885881, “DrugMatrix”

Organism: Rattus norvegicus
Test: DrugMatrix - Regimen: Daily Repeat
Type: toxicity, organism-based, Sprague-Dawley
Design: regimen Daily Repeat, gender Male, age 6-8 weeks
Conditions: in vivo, po, route oral GAVAGE, vehicle .5 % CMC; for ABSOLUTE BASOPHIL / BASOPHIL / EOSINOPHIL / ERYTHROCYTE COUNT / HEMATOCRIT / HEMOGLOBIN / LEUKOCYTE COUNT / LYMPHOCYTE / MEAN CORPUSCULAR HEMOGLOBIN / MEAN CORPUSCULAR HEMOGLOBIN CONCENTRATION / MEAN CORPUSCULAR VOLUME / MONOCYTE / NEUTROPHIL / PLATELET COUNT: tissue Blood; for ALANINE AMINOTRANSFERASE / ALBUMIN / ALKALINE PHOSPHATASE / ASPARTATE AMINOTRANSFERASE / BLOOD UREA NITROGEN / CHLORIDE / CHOLESTEROL / CREATINE PHOSPHOKINASE / CREATININE / GLUCOSE / PHOSPHORUS / POTASSIUM / SODIUM / TOTAL BILIRUBIN / TOTAL PROTEIN: tissue Plasma
[1] = 0 mg/kg, 72 h, dose level Control, time 3 day
[2] = 0 mg/kg, 120 h, dose level Control, time 5 day
[3] = 100 mg/kg, 72 h, dose level Low, time 3 day
[4] = 100 mg/kg, 120 h, dose level Low, time 5 day
[5] = 390 mg/kg, 72 h, dose level High, time 3 day
[6] = 390 mg/kg, 120 h, dose level High, time 5 day

SMILES: CC[C@]1(O)CC[C@H]2[C@@H]3CCC4=CCCC[C@@H]4[C@H]3CC[C@@]21C
- ABSOLUTE BASOPHIL [1]: 16.7 cells/µL
- BASOPHIL [1]: 0.17%
- EOSINOPHIL [1]: 0.62%
- ERYTHROCYTE COUNT [1]: 6.55 x10E6/uL
- HEMATOCRIT [1]: 42%
- HEMOGLOBIN [1]: 13.48 G/DL
- LEUKOCYTE COUNT [1]: 8.79 x10E3/uL
- LYMPHOCYTE [1]: 76.98%
- MEAN CORPUSCULAR HEMOGLOBIN [1]: 20.57 pg
- MEAN CORPUSCULAR HEMOGLOBIN CONCENTRATION [1]: 32.08 G/DL
- MEAN CORPUSCULAR VOLUME [1]: 64.1 fL
- MONOCYTE [1]: 2.12%
- NEUTROPHIL [1]: 19%
- PLATELET COUNT [1]: 1432.17 x10E3/uL
- ALANINE AMINOTRANSFERASE [1]: 42.83 u/L
- ALBUMIN [1]: 3.63 G/DL
- ALKALINE PHOSPHATASE [1]: 328.5 u/L
- ASPARTATE AMINOTRANSFERASE [1]: 78.33 u/L
- BLOOD UREA NITROGEN [1]: 14.5 mg/dL
- CHLORIDE [1]: 104.5 MEQ/L
- CHOLESTEROL [1]: 78.67 mg/dL
- CREATINE PHOSPHOKINASE [1]: 282.33 u/L
- CREATININE [1]: 0.25 mg/dL
- GLUCOSE [1]: 173.67 mg/dL
- PHOSPHORUS [1]: 12.83 mg/dL
- POTASSIUM [1]: 6.7 MEQ/L
- SODIUM [1]: 145.83 MEQ/L
- TOTAL BILIRUBIN [1]: 0.4 mg/dL
- TOTAL PROTEIN [1]: 5.93 G/DL
- ABSOLUTE BASOPHIL [2]: 28 cells/µL
- BASOPHIL [2]: 0.26%
- EOSINOPHIL [2]: 0.44%
- ERYTHROCYTE COUNT [2]: 6.99 x10E6/uL
- HEMATOCRIT [2]: 45.12%
- HEMOGLOBIN [2]: 14.26 G/DL
- LEUKOCYTE COUNT [2]: 9.42 x10E3/uL
- LYMPHOCYTE [2]: 79.92%
- MEAN CORPUSCULAR HEMOGLOBIN [2]: 20.44 pg
- MEAN CORPUSCULAR HEMOGLOBIN CONCENTRATION [2]: 31.62 G/DL
- MEAN CORPUSCULAR VOLUME [2]: 64.6 fL
- MONOCYTE [2]: 2.2%
- NEUTROPHIL [2]: 16.14%
- PLATELET COUNT [2]: 1062.2 x10E3/uL
- ALANINE AMINOTRANSFERASE [2]: 44 u/L
- ALBUMIN [2]: 3.73 G/DL
- ALKALINE PHOSPHATASE [2]: 342.6 u/L
- ASPARTATE AMINOTRANSFERASE [2]: 74.17 u/L
- BLOOD UREA NITROGEN [2]: 13 mg/dL
- CHLORIDE [2]: 103 MEQ/L
- CHOLESTEROL [2]: 72.83 mg/dL
- CREATINE PHOSPHOKINASE [2]: 184.67 u/L
- CREATININE [2]: 0.47 mg/dL
- GLUCOSE [2]: 168.17 mg/dL
- PHOSPHORUS [2]: 12.27 mg/dL
- POTASSIUM [2]: 6.98 MEQ/L
- SODIUM [2]: 147 MEQ/L
- TOTAL BILIRUBIN [2]: 0.65 mg/dL
- TOTAL PROTEIN [2]: 6.23 G/DL
- ABSOLUTE BASOPHIL [3]: 23.3 cells/µL
- BASOPHIL [3]: 0.23%
- EOSINOPHIL [3]: 0.63%
- ERYTHROCYTE COUNT [3]: 7.14 x10E6/uL
- HEMATOCRIT [3]: 43.57%
- HEMOGLOBIN [3]: 14.03 G/DL
- LEUKOCYTE COUNT [3]: 12.51 x10E3/uL
- LYMPHOCYTE [3]: 79.1%
- MEAN CORPUSCULAR HEMOGLOBIN [3]: 19.63 pg
- MEAN CORPUSCULAR HEMOGLOBIN CONCENTRATION [3]: 32.2 G/DL
- MEAN CORPUSCULAR VOLUME [3]: 61 fL
- MONOCYTE [3]: 2.57%
- NEUTROPHIL [3]: 16.13%
- PLATELET COUNT [3]: 1395 x10E3/uL
- ALANINE AMINOTRANSFERASE [3]: 38 u/L
- ALBUMIN [3]: 3.67 G/DL
- ALKALINE PHOSPHATASE [3]: 426 u/L
- ASPARTATE AMINOTRANSFERASE [3]: 66.33 u/L
- BLOOD UREA NITROGEN [3]: 10.33 mg/dL
- CHLORIDE [3]: 103.33 MEQ/L
- CHOLESTEROL [3]: 51 mg/dL
- CREATINE PHOSPHOKINASE [3]: 235.33 u/L
- CREATININE [3]: 0.33 mg/dL
- GLUCOSE [3]: 164.33 mg/dL
- PHOSPHORUS [3]: 12.4 mg/dL
- POTASSIUM [3]: 6.67 MEQ/L
- SODIUM [3]: 145 MEQ/L
- TOTAL BILIRUBIN [3]: 0.47 mg/dL
- TOTAL PROTEIN [3]: 6 G/DL
- ABSOLUTE BASOPHIL [4]: 56.7 cells/µL
- BASOPHIL [4]: 0.47%
- EOSINOPHIL [4]: 0.23%
- ERYTHROCYTE COUNT [4]: 6.95 x10E6/uL
- HEMATOCRIT [4]: 44.83%
- HEMOGLOBIN [4]: 14.17 G/DL
- LEUKOCYTE COUNT [4]: 12.16 x10E3/uL
- LYMPHOCYTE [4]: 86.2%
- MEAN CORPUSCULAR HEMOGLOBIN [4]: 20.37 pg
- MEAN CORPUSCULAR HEMOGLOBIN CONCENTRATION [4]: 31.6 G/DL
- MEAN CORPUSCULAR VOLUME [4]: 64.47 fL
- MONOCYTE [4]: 2%
- NEUTROPHIL [4]: 10.03%
- PLATELET COUNT [4]: 1290.67 x10E3/uL
- ALANINE AMINOTRANSFERASE [4]: 38.67 u/L
- ALBUMIN [4]: 3.67 G/DL
- ALKALINE PHOSPHATASE [4]: 360 u/L
- ASPARTATE AMINOTRANSFERASE [4]: 55 u/L
- BLOOD UREA NITROGEN [4]: 10.67 mg/dL
- CHLORIDE [4]: 99 MEQ/L
- CHOLESTEROL [4]: 42 mg/dL
- CREATINE PHOSPHOKINASE [4]: 164 u/L
- CREATININE [4]: 0.2 mg/dL
- GLUCOSE [4]: 173.33 mg/dL
- PHOSPHORUS [4]: 12.6 mg/dL
- POTASSIUM [4]: 7.33 MEQ/L
- SODIUM [4]: 147 MEQ/L
- TOTAL BILIRUBIN [4]: 0.33 mg/dL
- TOTAL PROTEIN [4]: 6.1 G/DL
- ABSOLUTE BASOPHIL [5]: 36.7 cells/µL
- BASOPHIL [5]: 0.27%
- EOSINOPHIL [5]: 0.43%
- ERYTHROCYTE COUNT [5]: 7 x10E6/uL
- HEMATOCRIT [5]: 42.77%
- HEMOGLOBIN [5]: 14.3 G/DL
- LEUKOCYTE COUNT [5]: 13.01 x10E3/uL
- LYMPHOCYTE [5]: 77.23%
- MEAN CORPUSCULAR HEMOGLOBIN [5]: 20.43 pg
- MEAN CORPUSCULAR HEMOGLOBIN CONCENTRATION [5]: 33.43 G/DL
- MEAN CORPUSCULAR VOLUME [5]: 61.2 fL
- MONOCYTE [5]: 2.47%
- NEUTROPHIL [5]: 18%
- PLATELET COUNT [5]: 1291 x10E3/uL
- ALANINE AMINOTRANSFERASE [5]: 42.67 u/L
- ALBUMIN [5]: 3.6 G/DL
- ALKALINE PHOSPHATASE [5]: 336.67 u/L
- ASPARTATE AMINOTRANSFERASE [5]: 63.33 u/L
- BLOOD UREA NITROGEN [5]: 11.33 mg/dL
- CHLORIDE [5]: 102.33 MEQ/L
- CHOLESTEROL [5]: 36.33 mg/dL
- CREATINE PHOSPHOKINASE [5]: 193 u/L
- CREATININE [5]: 0.4 mg/dL
- GLUCOSE [5]: 166 mg/dL
- PHOSPHORUS [5]: 11.2 mg/dL
- POTASSIUM [5]: 6.37 MEQ/L
- SODIUM [5]: 145.67 MEQ/L
- TOTAL BILIRUBIN [5]: 0.63 mg/dL
- TOTAL PROTEIN [5]: 5.87 G/DL
- ABSOLUTE BASOPHIL [6]: 200 cells/µL
- BASOPHIL [6]: 1.57%
- EOSINOPHIL [6]: 0.97%
- ERYTHROCYTE COUNT [6]: 8.29 x10E6/uL
- HEMATOCRIT [6]: 52.23%
- HEMOGLOBIN [6]: 16.3 G/DL
- LEUKOCYTE COUNT [6]: 13.36 x10E3/uL
- LYMPHOCYTE [6]: 79.5%
- MEAN CORPUSCULAR HEMOGLOBIN [6]: 19.77 pg
- MEAN CORPUSCULAR HEMOGLOBIN CONCENTRATION [6]: 31.27 G/DL
- MEAN CORPUSCULAR VOLUME [6]: 63.17 fL
- MONOCYTE [6]: 1.77%
- NEUTROPHIL [6]: 14.97%
- PLATELET COUNT [6]: 1359.67 x10E3/uL
- ALANINE AMINOTRANSFERASE [6]: 31 u/L
- ALBUMIN [6]: 4.13 G/DL
- ALKALINE PHOSPHATASE [6]: 287.67 u/L
- ASPARTATE AMINOTRANSFERASE [6]: 54.67 u/L
- BLOOD UREA NITROGEN [6]: 14 mg/dL
- CHLORIDE [6]: 104.33 MEQ/L
- CHOLESTEROL [6]: 60 mg/dL
- CREATINE PHOSPHOKINASE [6]: 166 u/L
- CREATININE [6]: 0.37 mg/dL
- GLUCOSE [6]: 151.33 mg/dL
- PHOSPHORUS [6]: 11.3 mg/dL
- POTASSIUM [6]: 7 MEQ/L
- SODIUM [6]: 155 MEQ/L
- TOTAL BILIRUBIN [6]: 0.4 mg/dL
- TOTAL PROTEIN [6]: 7.07 G/DL
